How the values were obtained:
[1] = Time-dependent solubility of slurries (HPLC) in aqueous hydrochloric acid (0.1 N) and phosphate buffer (pH 7.5) at 37° C.; type: physicochemical
Experimental: a) Solubility in Aqueous Hydrochloric Acid (0.1 N)
102.39 mg of darolutamide form I were slurried in 20 mL aqueous hydrochloric acid (0.1 N) at 37° C.
99.41 mg of darolutamide form II were slurried in 20 mL aqueous hydrochloric acid (0.1 N) at 37° C.
b) Solubility in Phosphate Buffer (pH 7.5)
105.02 mg of darolutamide form I were slurried in 20 mL […] at 37° C.
103.41 mg of darolutamide form II were slurried in 20 mL […] at 37° C.
Samples were taken after 5 min, 15 min and 60 min. The suspensions were filtered and subjected undiluted to HPLC. The absolute solubility was calculated by creating a linear calibration curve (see below). Results are reported in Table 4 and in FIGS. 10 and 11.
Solutions of different concentrations (Table 5) of darolutamide were prepared in acetonitrile/water (75% v/v) at 37° C. and subjected to HPLC measurement. The resulting areas were illustrated as a function of the concentrations and a linear dependency could be observed (FIG. 12).

[2] = Gravimetric moisture sorption (GMS); type: physicochemical; conditions: for phase change during the GMS experiments: 0% to approximately 90% r.h.; for water uptake from 0% to 90% RH: 25±0.1° C.
Experimental: Moisture sorption isotherms were recorded with an SPSx-1p moisture sorption analyzer (ProUmid, Ulm. The measurement cycle was started at a relative humidity (r.h.) of 25%. Relative humidity was then decreased to 5% r.h. in 5% steps, followed by a further decrease to 3% r.h. and to 0% r.h. Afterwards r.h. was increased from 0% to approximately 90% r.h. in a sorption cycle and decreased to 0% in a desorption cycle in 5% steps. Finally r.h. was increased to 25% r.h. in 5% steps.
The time per step was set to a minimum of 2 hours and a maximum of 6 hours. If an equilibrium condition with a constant mass of 0.01% within 1 hour was reached before the maximum time for all examined samples the sequential humidity step was applied before the maximum time of 6 hours. If no equilibrium was achieved the consecutive humidity step was applied after the maximum time of 6 hours. The temperature was 25±0.1° C.

[3] = Time-dependent solubility of slurries (HPLC) in aqueous hydrochloric acid (0.1 N) and phosphate buffer (pH 7.5) at 37° C.; type: physicochemical; conditions: phosphate buffer (pH 7.5)
[4] = Food effect / blood levels after oral administration; type: in vivo

solubility (concentration in solution) ([1]; slurry time 5 min) [µg/mL] | solubility (concentration in solution) ([1]; slurry time 15 min) [µg/mL] | solubility (concentration in solution) ([1]; slurry time 60 min) [µg/mL] | water uptake from 0% to 90% RH ([2]; GMS) | solubility (concentration in solution) ([3]; slurry time 5 min) [µg/mL] | solubility (concentration in solution) ([3]; slurry time 15 min) [µg/mL] | solubility (concentration in solution) ([3]; slurry time 60 min) [µg/mL] | hygroscopicity (comparison) ([2]; GMS, 25° C.) | food effect ([4]; compared to darolutamide Form I) | Structure (SMILES) | phase change during the GMS experiments ([2]; 25° C.) | blood levels when administered without food ([4]; without food)
43 | 41 | 38 | +1.7% | 43 | 40 | 42 |  |  | CC(O)c1cc(C(=O)N[C@@H](C)Cn2ccc(-c3ccc(C#N)c(Cl)c3)n2)n[nH]1 (mixture of isomers) [Form I, N-{(2S)-1-[3-(3-chloro-4-cyanophenyl)-1H-pyrazol-1-yl]-propan-2-yl}-5-[(1RS)-1-hydroxyethyl]-1H-pyrazole-3-carboxamide] | Neither form I nor form II underwent any phase change | 
113 | 121 | 117 | +1.3% | 89 | 97 | 93 | less hygroscopic than form I | significantly lower food effect | CC(O)c1cc(C(=O)N[C@@H](C)Cn2ccc(-c3ccc(C#N)c(Cl)c3)n2)n[nH]1 (mixture of isomers) [Form II, N-{(2S)-1-[3-(3-chloro-4-cyanophenyl)-1H-pyrazol-1-yl]-propan-2-yl}-5-[(1RS)-1-hydroxyethyl]-1H-pyrazole-3-carboxamide] | Neither form I nor form II underwent any phase change | still achieving therapeutically effective blood levels

From US20210087175A1, “Crystalline Form II of Darolutamide” (Sandoz AG, priority 2018, published 2021)
